{"source": "patent US20140303092A1", "about": "(CHIMERIX, INC., priority 2011, published 2014)", "tested_on": "CMV", "test": "Study HDP-CDV-201: prevention or control of CMV infection in R+ HSCT recipients (efficacy)", "assay_type": "in vivo, human (adult allogeneic HSCT recipients)", "settings": "for Difference (HDP-CDV minus placebo) in rate of CMV DNAemia ≧1,000 copies/mL / Rate of CMV DNAemia ≧1,000 copies/mL during the treatment period: CMV modified strata: positive; for Discontinuation: Emergence of CMV disease / Discontinuation: Initiation of alternate CMV therapy: active treatment period", "method": "The clinical study of the current invention (HDP-CDV-201) was a 9-11 week randomized, placebo-controlled, double-blind, dose-escalation study (40 mg weekly [QW], 100 mg QW, 200 mg QW, 200 mg twice-weekly [BIW], and 100 mg BIW) of HDP-CDV for the prevention of CMV infection post-HCT. Treatment was initiated at the time of engraftment and continued until Week 13 post-HCT. HDP-CDV, at various doses, was active and well tolerated in the prevention CMV infection or disease.\nClinical Studies of HDP-CDV were performed and described in detail in the following Examples. For example, HDP-CDV-201 is a placebo-controlled, dose-escalating trial in HSCT CMV (R+) recipients, evaluating the ability of HDP-CDV to prevent or control CMV infection was carried out. Five cohorts were established in which participants or subjects received either placebo or the HDP-CDV orally, in doses ranging from 40 mg weekly (QW) to 200 mg twice weekly (BIW). Subjects who were post-HSCT were enrolled at the time of engraftment and randomized to HDP-CDV or placebo (3 to 1 ratio) and received blinded therapy until approximately 100 day post-transplantation. HDP-CDV doses were 40 mg QW, 100 mg QW, 200 mg QW, 200 mg BIW and 100 mg BIW. Escalation to the next dose was decided by the data monitoring committee after review of the safety data from the previous Cohort. Subjects who developed CMV disease or CMV infection requiring pre-emptive therapy with local standard of care were discontinued from blinded therapy and followed for 4 weeks. Subjects who completed treatment with blinded therapy were followed for 8 weeks post-therapy.\nThe primary endpoint was defined as the incidence of CMV disease at any time during treatment or CMV DNAemia≧200 copies/mL at the end of treatment. All subjects who received at least one dose of drug/placebo and had at least one efficacy evaluation post baseline were included in the primary analysis, regardless of their CMV DNAemia status (negative or positive) at baseline (mITT population). Results for the pooled HDP-CDV Cohorts and for each Cohort separately were analyzed versus that for pooled placebo.\nThe primary efficacy measure for this study was treatment failure, defined as the occurrence of CMV infection, defined as CMV DNAemia>200 copies/mL at the End of Treatment or diagnosis of CMV disease at any time during the treatment period. For the analysis, the following definitions apply:\nFor subjects who completed the treatment phase of the study, the End of Treatment was defined as the latest assessment from date of the last dose of study drug and up to 7 days for QW dosing, or the date of the last dose of study drug and up to 4 days for BIW dosing. For subjects who discontinued during the treatment phase of the study, the End of Treatment was defined as the date of the last dose of study drug.\nThe time to event was defined as the period between FDD and date of first occurrence of the event of interest (inclusive). The events included onset of CMV DNAemia, onset of CMV disease, and discontinuation because of excluded anti-CMV medications. Time to event/onset was derived as (the event/onset date—FDD)+1.\nAs detailed in the Statistical Analysis Plan, a modified CMV stratum was defined prior to conducting the statistical analysis based upon polymerase chain reaction (PCR) results from the central laboratory. If any positive CMV DNA value in plasma was collected before the first dose of study drug (including Screening, Pre-dose, (combined Screening/Pre-dose), CMV for stratification, and FDD), then the subject was placed into the modified CMV positive (≧100 copies/mL) stratum, otherwise the subject was in the modified CMV negative stratum. […]", "key": {"[1]": {"settings": "40 mg QW, CMV modified strata: negative"}, "[2]": {"settings": "40 mg QW, modified CMV negative stratum"}, "[3]": {"settings": "40 mg QW, treatment period, CMV DNA negative at baseline"}, "[4]": {"settings": "40 mg QW, whole study period, CMV DNA negative at baseline"}, "[5]": {"settings": "100 mg BIW, CMV modified strata: negative"}}, "note": "“And” between values parts separate entries of the source, which are not always exact repeats. Equal entries are not always repeated."}
{"smiles": "CCCCCCCCCCCCCCCCOCCCOP(=O)(O)COC(CO)Cn1ccc(N)nc1=O", "note": "(stereo not drawn) [HDP-CDV]", "values": [{"measurement": "anti-CMV activity (in words)", "setting": "40 mg QW", "result": "inactive"}, {"measurement": "Difference (HDP-CDV minus placebo) in infection rate", "setting": "[1]", "result": 9.1, "unit": "%"}, {"measurement": "Difference (HDP-CDV minus placebo) in rate of CMV DNAemia ≧1,000 copies/ml", "setting": "[1]", "result": "−9.7", "unit": "%"}, {"measurement": "Rate of CMV DNAemia ≧1,000 copies/ml during the treatment period", "setting": "[1]", "result": 22.2, "unit": "%"}, {"measurement": "Rate of CMV Disease or End of Treatment CMV Infection", "setting": "[1]", "result": 38.9, "unit": "%"}, {"measurement": "Difference (HDP-CDV minus placebo) in rate of CMV DNAemia ≧1,000 copies/mL", "setting": "40 mg QW", "result": 2.4, "unit": "%"}, {"measurement": "Rate of CMV DNAemia ≧1,000 copies/mL during the treatment period", "setting": "40 mg QW", "result": 85.7, "unit": "%"}, {"measurement": "Rate of CMV Disease or End of Treatment CMV Infection", "setting": "40 mg QW, aGVHD randomization strata: negative", "result": 52.2, "unit": "%"}, {"measurement": "Difference (HDP-CDV minus placebo) in infection rate", "setting": "40 mg QW, aGVHD strata: negative", "result": 20.1, "unit": "%"}, {"measurement": "Discontinuation: Emergence of CMV disease", "setting": "40 mg QW", "result": "3 Subject n (%) and 3 (12.0%) Subject n (%)"}, {"measurement": "Discontinuation: Initiation of alternate CMV therapy", "setting": "40 mg QW", "result": "8 (32.0%) Subject n (%)"}, {"measurement": "Difference (HDP-CDV minus placebo) in rate of CMV DNAemia ≧1000 copies/mL", "setting": "40 mg QW, mITT", "result": "−2.4", "unit": "%"}, {"measurement": "Difference (HDP-CDV minus placebo) in rate of CMV disease or end of treatment CMV infection", "setting": "40 mg QW, mITT", "result": 14.7, "unit": "%"}, {"measurement": "Subjects Receiving Antiviral Therapy and/or had CMV disease", "setting": "40 mg QW, mITT", "result": "11 (44.0%) subjects (%)"}, {"measurement": "Subjects without a CMV event", "setting": "40 mg QW, mITT", "result": "14 (56.0%) subjects (%)"}, {"measurement": "Time to Antiviral Therapy, Median", "setting": "40 mg QW, mITT", "result": 29.0, "unit": "days"}, {"measurement": "Rate of CMV Disease or End of Treatment CMV Infection (≧200 copies/ml)", "setting": "40 mg QW, mITT, missing=infection", "result": 52, "unit": "%"}, {"measurement": "Rate of CMV DNAemia ≧1000 copies/mL during the treatment period", "setting": "40 mg QW, mITT, post hoc", "result": 40.0, "unit": "%"}, {"measurement": "Time to Antiviral Therapy, Mean", "setting": "40 mg QW, mITT, censored values not included", "result": 27.1, "unit": "days"}, {"measurement": "Subjects Who Had CMV-related Event (CMV disease, CMV DNAemia ≧1,000 c/mL or initiation of anti-CMV treatment)", "setting": "[2]", "result": "5 (27.8%) subjects (%)"}, {"measurement": "Subjects without a CMV-related event", "setting": "[2]", "result": "13 (72.2%) subjects (%)"}, {"measurement": "Developed CMV DNAemia (≧100 copies/mL) during the treatment period", "setting": "40 mg QW, plasma CMV DNA negative at baseline, mITT", "result": "10 (52.6%) N(%)"}, {"measurement": "Median Survival Time to CMV DNAemia (Kaplan-Meier)", "setting": "[3]", "result": 51.0, "unit": "days"}, {"measurement": "Time to CMV DNAemia (≧100 copies/mL), Median", "setting": "[3]", "result": 14.5, "unit": "days"}, {"measurement": "Time to CMV DNAemia (≧100 copies/mL), Mean", "setting": "40 mg QW, treatment period, CMV DNA negative at baseline, censored values not included", "result": 17.8, "unit": "days"}, {"measurement": "Median Survival Time to CMV DNAemia (Kaplan-Meier)", "setting": "40 mg QW, whole study period", "result": 51.0, "unit": "days"}, {"measurement": "Number of Subjects who had CMV DNAemia (≧100 copies/mL) by the end of study", "setting": "[4]", "result": 11}, {"measurement": "Time to CMV DNAemia (≧100 copies/mL), Mean", "setting": "[4]", "result": 24.5, "unit": "days"}, {"measurement": "Time to CMV DNAemia (≧100 copies/mL), Median", "setting": "[4]", "result": 15.0, "unit": "days"}, {"measurement": "% CMV Event Rate, primary: CMV DNAemia >200 copies/mL at end of treatment OR CMV disease during treatment", "setting": "100 mg BIW (N = 41), CMV modified strata: negative", "result": "2 (4.9%) subjects (%)"}, {"measurement": "% CMV Event Rate, primary: CMV DNAemia >200 copies/mL at end of treatment OR CMV disease during treatment", "setting": "100 mg BIW (N = 46), aGVHD strata: negative", "result": "4 (8.7%) subjects (%)"}, {"measurement": "% CMV Event Rate, primary: CMV DNAemia >200 copies/mL at end of treatment OR CMV disease during treatment", "setting": "100 mg BIW (N = 50), mITT", "result": "5 (10.0)%"}, {"measurement": "CMV events (disease at any time or >200 copies at end of treatment)", "setting": "100 mg BIW, CMV modified positive stratum (3 of 9)", "result": 33, "unit": "%"}, {"measurement": "Difference (HDP-CDV minus placebo) in infection rate", "setting": "[5]", "result": "−24.9", "unit": "%"}, {"measurement": "Difference (HDP-CDV minus placebo) in rate of CMV DNAemia ≧1,000 copies/ml", "setting": "[5]", "result": "−31.9", "unit": "%"}, {"measurement": "Rate of CMV DNAemia ≧1,000 copies/ml during the treatment period", "setting": "[5]", "result": 0, "unit": "%"}, {"measurement": "Rate of CMV Disease or End of Treatment CMV Infection", "setting": "[5]", "result": "4.9% and 5%"}, {"measurement": "Difference (HDP-CDV minus placebo) in rate of CMV DNAemia ≧1,000 copies/mL", "setting": "100 mg BIW", "result": "−38.9", "unit": "%"}, {"measurement": "Rate of CMV DNAemia ≧1,000 copies/mL during the treatment period", "setting": "100 mg BIW", "result": 44.4, "unit": "%"}, {"measurement": "Rate of CMV Disease or End of Treatment CMV Infection", "setting": "100 mg BIW, aGVHD randomization strata: negative", "result": "9% and 8.7%"}, {"measurement": "Difference (HDP-CDV minus placebo) in infection rate", "setting": "100 mg BIW, aGVHD strata: negative", "result": "−23.4", "unit": "%"}, {"measurement": "Discontinuation: Emergence of CMV disease", "setting": "100 mg BIW", "result": "1 Subject n (%) and 1 (2.0%) Subject n (%)"}, {"measurement": "Discontinuation: Initiation of alternate CMV therapy", "setting": "100 mg BIW", "result": "6 (12.0%) Subject n (%)"}, {"measurement": "Difference (HDP-CDV minus placebo) in rate of CMV DNAemia ≧1000 copies/mL", "setting": "100 mg BIW, mITT", "result": "−34.4", "unit": "%"}, {"measurement": "Difference (HDP-CDV minus placebo) in rate of CMV disease or end of treatment CMV infection", "setting": "100 mg BIW, mITT", "result": "−27.3", "unit": "%"}]}
